Laboratory results reported in US20220265712A1, “POPULATIONS OF NATURAL KILLER CELLS FOR TREATING CANCERS” (CELULARITY INC., priority 2019, published 2022).
Where two headings read alike, the source gives them in different places.

Assays:
[1] = tested on: K562 tumor cells; test: Cytotoxicity assay of compound cultured cells against K562 tumor cells; format: cell-based; conditions: 10:1 effector to target ratio; both donors
Experimental: (§1) For biological testing, the compounds were provided to culture to evaluate their effects on NK cell expansion and differentiation. Specifically, donors of CD34+ cells (StemCell Technology) were thawed and expanded in vitro following NK culture protocol. During the first 14 days of the culture, each CRL compounds was dissolved in DMSO and added to the culture at 10 μM concentration. SR1 (at 10 μM) served as a positive control compound, while DMSO alone without any compound served as a negative control. At the end of the culture on Day 35, cell expansion, natural killer (NK) cell differentiation and cytotoxicity of the cells against K562 tumor cell line were characterized. Due to the large number of the compounds, the testing was performed in two experiments, CRL1-11 and CRL 12-22. The same donors were used for each experiment. Positive and negative controls were also included in both experiments.
Cytotoxicity assay was run using compound cultured cells against K562 tumor cells at 10:1 effector to target ratio (FIG. 5) to evaluate cell functions.

[2] = tested on: CD34+ cells; test: NK cell differentiation of compound cultured cells (flow cytometry); format: cell-based, human; conditions: compared to SR1
Description: (§2) UCB CD34+ cells were cultivated in presence of cytokines including thrombopoietin, SCF, Flt3 ligand, IL-7, IL-15 and IL-2 for 35 days to produce three-stage NK cells, as described in Example 1. Multi-color flow cytometry was used to determine the phenotypic characteristics of three-stage NK cells.
as §1

[3] = tested on: CD34+ cells; test: NK cell expansion from CD34+ cells cultured with CRL compounds (three-stage NK culture, Day 35); format: cell-based, human; conditions: 10 μM; for expansion compared to SR1 / cell expansion, rank among all the compounds: Day 35; for expansion compared to SR1: SR1 10 μM positive control; for expansion, differentiation and cytotoxicity profiles compared to SR1: PNK-007 culture
Description: as §2, §1

[4] = tested on: CD34 cells; test: CD34 cell expansion at Day 14 of the culture; format: cell-based, human; conditions: 10 μM
Experimental: as §1

[5] = tested on: NDMM patients; conditions: cited from earlier work

Row | Structure (SMILES) | killing activities compared to cells cultured with SR1 [1] | CD56+/CD11a+ subpopulation [2] | expansion compared to SR1 [3] | CD34 cell expansion [4] | cell expansion, rank among all the compounds [3] | expansion, differentiation and cytotoxicity profiles compared to SR1 [3] | further results
1 | CC(C)c1csc2c(NCCc3c[nH]c4ccccc34)nc(-c3cncc(C#N)c3)nc12 [CRL17, 5-(4-((2-(1H-indol-3-yl)ethyl)amino)-7-isopropylthieno[3,2-d]pyrimidin-2-yl)nicotinonitrile] | increased killing activities of the cells | increased CD56+/CD11a+ subpopulation | slightly less expansion compared to SR1 | – | – | – | –
2 | CC(C)c1csc2c(NCCc3c[nH]c4ccccc34)nc(-c3cncc(F)c3)nc12 [CRL18, N-(2-(1H-indol-3-yl)ethyl)-2-(5-fluoropyridin-3-yl)-7-isopropylthieno[3,2-d]pyrimidin-4-amine] | increased killing activities of the cells | increased CD56+/CD11a+ subpopulation | slightly less expansion compared to SR1 | – | – | – | –
3 | Fc1cncc(-c2nc(NCCc3c[nH]c4ccccc34)c3occc3n2)c1 [CRL19, N-(2-(1H-indol-3-yl)ethyl)-2-(5-fluoropyridin-3-yl)furo[3,2-d]pyrimidin-4-amine] | – | – | – | achieved the highest CD34 cell expansion | supported cell expansion the best | very similar expansion, differentiation and cytotoxicity profiles as SR1 | –
4 | Cc1cncc(-c2nc(NCCc3c[nH]c4ccccc34)c3occc3n2)c1 [CRL20, N-(2-(1H-indol-3-yl)ethyl)-2-(5-methylpyridin-3-yl)furo[3,2-d]pyrimidin-4-amine] | – | – | – | achieved the highest CD34 cell expansion | supported cell expansion the best | very similar expansion, differentiation and cytotoxicity profiles as SR1 | –
5 | Cc1cncc(-c2nc(NCCc3c[nH]c4ccccc34)c3scc(C(C)C)c3n2)c1 [CRL21, N-(2-(1H-indol-3-yl)ethyl)-7-isopropyl-2-(5-methylpyridin-3-yl)thieno[3,2-d]pyrimidin-4-amine] | increased killing activities of the cells | increased CD56+/CD11a+ subpopulation | slightly less expansion compared to SR1 | – | – | – | –
6 | N#Cc1cncc(-c2nc(NCCc3c[nH]c4ccccc34)c3occc3n2)c1 [CRL22, 5-(4-((2-(1H-indol-3-yl)ethyl)amino)furo[3,2-d]pyrimidin-2-yl)nicotinonitrile] | – | – | – | achieved the highest CD34 cell expansion | supported cell expansion the best | very similar expansion, differentiation and cytotoxicity profiles as SR1 | –
7 | Nc1cccc2c1CN(C1CCC(=O)NC1=O)C2=O (stereo not shown) [lenalidomide, 3-(4′ aminoisoindoline-1′-one)-1-piperidine-2,6-dione] | – | – | – | – | – | – | ORR (VGPR or better) ([5]; 1 year post ASCT): 48%; ORR (VGPR or better) ([5]; 2 year post ASCT): 36%; hazard ratio for TTP versus placebo ([5]; 95% CI 0.46-0.71, p<0.0001): 0.57; median TTP ([5]; 95% CI 44.2-73.3, not accounting for crossover): 57.3 months
